# Source: EP0745595A1, “3-(3-Aryloxyphenyl)-1-(substituted methyl)-s-triazine-2,4,6-oxo or thiotrione herbicidal agents” (American Cyanamid Company, priority 1995, dated 1996)
# Assays:
# Type in all cases: in vivo
# [1] = tested on: GLYCINE MAX(L) MERR. CV. WILLIAMS; assay: Preemergence herbicidal evaluation, GLXMAW (Soybean, Williams); settings: for GLXMAW rating: four to five weeks after treatment; for GLXMAW herbicidal rating: rated four to five weeks after treatment
# Summary of the method: (§1)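 First, seeds in potting soil are sown atop soil in cups. Next, the surface is sprayed with test compound in aqueous acetone at roughly 0.125 to 0.50 kg per hectare. After four to five weeks of greenhouse care, each cup is scored 0-9 against a control.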
# [2] = tested on: ORYZA SATIVA, L. TEBONNET; assay: Rice tolerance to post-transplant applications under flooded paddy conditions, ORYSAT (Rice, Tebonnet); settings: post-transplant rice; for ORYSAT herbicidal rating (rice tolerance): rated three to four weeks after treatment; for Herbicidal effect rating, ORYSAT: 3-4 weeks after treatment;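 for ORYSAT herbicidal rating (rice tolerance): applied to flooded soil surface three days after transplanting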
# Summary of the method: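 Visual 0-9 rating against untreated control (stand, vigor, malformation, size, chlorosis, overall appearance), taken 3-4 weeks after treatment. Flooded silt loam, water at 1.5-3 cm; two 10-day-old seedlings per pot; compound applied to flooded soil surface 3 days post-transplant at ~0.5-0.063 kg/ha.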
# [3] = tested on: CHENOPODIUM ALBUM, L.; assay: Postemergence herbicidal evaluation, CHEAL (Lambsquarters, Common); settings: for CHEAL, herbicide rating (0-9): rated four to five weeks after treatment, averaged
# Summary of the method: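 Postemergence herbicidal activity on Chenopodium album was tested by spraying two-week-old seedlings grown in jiffy flats with compound in acetone/water (50/50) plus 0.5% TWEEN®20, using a 40 psi nozzle. Four to five weeks after treatment, stand, vigor, malformation, size, chlorosis and overall appearance were scored 0-9 relative to controls, with repeat tests averaged.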
# [4] = tested on: ABUTILON THEOPHRASTI, MEDIC.; assay: Preemergence herbicidal evaluation, ABUTH (Velvetleaf); settings: for ABUTH rating: four to five weeks after treatment; for ABUTH herbicidal rating: rated four to five weeks after treatment
# Summary of the method: as §1
# [5] = tested on: ECHINOCHLOA CRUS-GALLI, (L) BEAU; assay: Preemergence herbicidal evaluation, ECHCG (Barnyardgrass); settings: for ECHCG rating: four to five weeks after treatment; for ECHCG herbicidal rating: rated four to five weeks after treatment
# Summary of the method: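 In this preemergence herbicide test, cups holding seeds of ECHCG sown in potting soil over roughly one inch of soil were treated and then grown under conventional greenhouse care. Tests were ended four to five weeks after treatment, and injury was scored 0-9 from stand, vigor, malformation, size, chlorosis and overall appearance relative to a control.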
# [6] = tested on: ZEA MAYS L.; assay: Preemergence herbicidal evaluation, ZEAMX (Corn, Field); settings: for ZEAMX rating: four to five weeks after treatment; for ZEAMX herbicidal rating: rated four to five weeks after treatment
# Summary of the method: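 Preemergence herbicidal activity on field corn: seeds in potting soil were sown atop roughly one inch of soil in separate pint cups, treated, and grown under standard greenhouse care. Four to five weeks post-treatment, stand, vigor, malformation, size, chlorosis and overall appearance were compared with a control and scored 0-9.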
# [7] = tested on: TRITICUM AESTIVUM, CV. APOLLO; assay: Preemergence herbicidal evaluation, TRZAWO (Wheat, Winter, CV. APOLLO); settings: for TRZAWO rating: four to five weeks after treatment; for TRZAWO herbicidal rating: rated four to five weeks after treatment
# Summary of the method: as §1
# [8] = tested on: AMBROSIA ARTEMISIIFOLIA, L.; assay: Preemergence herbicidal evaluation, AMBEL (Ragweed, Common); settings: for AMBEL rating: four to five weeks after treatment; for AMBEL herbicidal rating: rated four to five weeks after treatment
# Summary of the method: as §1
# [9] = tested on: SETARIA VIRIDIS, (L) BEAU; assay: Preemergence herbicidal evaluation, SETVI (Foxtail, Green); settings: for SETVI rating: four to five weeks after treatment; for SETVI herbicidal rating: rated four to five weeks after treatment
# Source text: Results of herbicide evaluation are expressed on a rating scale (0-9). The scale is based upon a visual observation of plant stand, vigor, malformation, size, chlorosis and overall plant appearance as compared with a control.
# The preemergence herbicidal activity of the test compounds of the present invention is exemplified by the following tests in which the seeds of a variety of monocotyledonous and dicotyledonous plants are separately mixed with potting soil and planted on top of approximately one inch of soil in separate pint cups. […] The treated cups are then placed on greenhouse benches, watered and cared for in accordance with conventional greenhouse procedures. From four to five weeks after treatment, the tests are terminated and each cup is examined and rated according to the rating system provided in Example 40.
# The compounds evaluated are reported by compound number given in Example 40.
# [10] = tested on: IPOMOEA SPP.; assay: Preemergence herbicidal evaluation, IPOSS (Morningglory spp.); settings: for IPOSS rating: four to five weeks after treatment; for IPOSS herbicidal rating: rated four to five weeks after treatment
# Summary of the method: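 This preemergence greenhouse test scored herbicidal effect on morningglory planted in pint cups, with seed mixed into potting soil and placed over about one inch of soil. After treatment the cups were watered and kept under conventional care. At four to five weeks, plant stand, vigor, malformation, size, chlorosis and overall appearance were compared with a control and rated 0-9.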
# [11] = tested on: CHENOPODIUM ALBUM, L.; assay: Preemergence herbicidal evaluation, CHEAL (Lambsquarters, Common); settings: four to five weeks after treatment
# Summary of the method: as §1
# [12] = tested on: ORYZA SATIVA, L. TEBONNET; assay: Preemergence herbicidal evaluation, ORYSAT (Rice, Tebonnet); settings: for ORYSAT rating: four to five weeks after treatment; for ORYSAT herbicidal rating: rated four to five weeks after treatment
# Summary of the method: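 Preemergence herbicidal activity on Tebonnet rice was assessed using pint cups of seeded potting soil kept under conventional greenhouse care after treatment. Tests ended four to five weeks later. Each cup received a 0-9 rating from visual comparison with a control covering stand, vigor, malformation, size, chlorosis and overall appearance.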
# [13] = tested on: SAGITTARIA PYGMAEA, L.; assay: Preemergence weed control under flooded paddy conditions, SAGPY (Arrowhead (Pygmaea)); settings: for SAGPY herbicidal rating: preemergence weeds, rated three to four weeks after treatment; for Herbicidal effect rating, SAGPY: preemergence, 3-4 weeks after treatment
# Summary of the method: (§2)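 Visual 0-9 score (stand, vigor, malformation, size, chlorosis, appearance vs untreated control) taken 3-4 wk after treatment. Test compounds were added into flood water (1.5-3 cm over silt loam) as 50/50 v/v aqueous/acetone, equivalent to about 0.5-0.063 kg/ha a.i.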
# [14] = tested on: CYPERUS SEROTINUS, ROTTB.; assay: Preemergence weed control under flooded paddy conditions, CYPSE (Flatsedge); settings: preemergence, 3-4 weeks after treatment
# Summary of the method: as §2
# [15] = tested on: GALIUM APARINE; assay: Preemergence herbicidal evaluation, GALAP (Galium); settings: rated four to five weeks after treatment
# Summary of the method: as §1
# [16] = tested on: GLYCINE MAX(L) MERR. CV. WILLIAMS; assay: Postemergence herbicidal evaluation, GLXMAW (Soybean, Williams); design: key to GLXMAW rating / Herbicidal effect rating, GLXMAW / GLXMAW: 0-9 visual rating scale vs untreated control
# Summary of the method: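 Herbicidal injury to Williams soybean was assessed after a postemergence spray of two-week-old seedlings grown in jiffy flats. Compounds were dispersed in an acetone/water (50/50) mixture with 0.5% TWEEN®20 surfactant and applied at 40 psi. After four to five weeks in the greenhouse, stand, vigor, malformation, size and chlorosis were compared against a control on a 0-9 scale, and results from replicate tests were averaged.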
compound,measurement,setting,value
"CCOC(=O)Cn1c(=O)n(CC(=O)OC)c(=O)n(-c2cc(Oc3c(F)cc(C(F)(F)F)cc3Cl)ccc2C#N)c1=O [Compound 12, 1-Ethyl methyl 5-{5-[(2-chloro-α,α,α,6-tetrafluoro-p-tolyl)oxy]-2-cyanophenyl}-dihydro-2,4,6-trioxo-s-triazine-1,3(2H,4H)-diacetate]",GLXMAW rating,[1]; Rate 0.125 kg/ha,0.0
same,GLXMAW rating,[1]; Rate 0.250 kg/ha,0.0
same,GLXMAW rating,[1]; Rate 0.500 kg/ha,0.0
same,ORYSAT herbicidal rating (rice tolerance),[2]; Rate 0.063 kg/ha,0.0
same,ORYSAT herbicidal rating (rice tolerance),[2]; Rate 0.125 kg/ha,0.0
same,ORYSAT herbicidal rating (rice tolerance),[2]; Rate 0.250 kg/ha,0.0
same,ORYSAT herbicidal rating (rice tolerance),[2]; Rate 0.500 kg/ha,1.0
same,"CHEAL, herbicide rating (0-9)",[3]; Rate 0.125 kg/ha,9.0
same,"CHEAL, herbicide rating (0-9)",[3]; Rate 0.250 kg/ha,9.0
same,"CHEAL, herbicide rating (0-9)",[3]; Rate 0.500 kg/ha,9.0
same,ABUTH rating,[4]; Rate 0.125 kg/ha,0.0
same,ABUTH rating,[4]; Rate 0.250 kg/ha,0.0
same,ABUTH rating,[4]; Rate 0.500 kg/ha,0.0
same,ECHCG rating,[5]; Rate 0.125 kg/ha,0.0
same,ECHCG rating,[5]; Rate 0.250 kg/ha,0.0
same,ECHCG rating,[5]; Rate 0.500 kg/ha,0.0
same,ZEAMX rating,[6]; Rate 0.125 kg/ha,0.0
same,ZEAMX rating,[6]; Rate 0.250 kg/ha,0.0
same,ZEAMX rating,[6]; Rate 0.500 kg/ha,0.0
same,TRZAWO rating,[7]; Rate 0.125 kg/ha,0.0
same,TRZAWO rating,[7]; Rate 0.250 kg/ha,0.0
same,TRZAWO rating,[7]; Rate 0.500 kg/ha,0.0
same,AMBEL rating,[8]; Rate 0.125 kg/ha,0.0
same,AMBEL rating,[8]; Rate 0.250 kg/ha,0.0
same,AMBEL rating,[8]; Rate 0.500 kg/ha,0.0
same,SETVI rating,[9]; Rate 0.125 kg/ha,0.0
same,SETVI rating,[9]; Rate 0.250 kg/ha,0.0
same,SETVI rating,[9]; Rate 0.500 kg/ha,0.0
same,IPOSS rating,[10]; Rate 0.125 kg/ha,0.0
same,IPOSS rating,[10]; Rate 0.250 kg/ha,0.0
same,IPOSS rating,[10]; Rate 0.500 kg/ha,0.0
same,CHEAL rating,[11]; Rate 0.125 kg/ha,0.0
same,CHEAL rating,[11]; Rate 0.250 kg/ha,0.0
same,CHEAL rating,[11]; Rate 0.500 kg/ha,0.0
same,ORYSAT rating,[12]; Rate 0.125 kg/ha,0.0
same,ORYSAT rating,[12]; Rate 0.250 kg/ha,0.0
same,ORYSAT rating,[12]; Rate 0.500 kg/ha,0.0
same,SAGPY herbicidal rating,[13]; Rate 0.063 kg/ha,0.0
same,SAGPY herbicidal rating,[13]; Rate 0.125 kg/ha,0.0
same,SAGPY herbicidal rating,[13]; Rate 0.250 kg/ha,0.0
same,SAGPY herbicidal rating,[13]; Rate 0.500 kg/ha,0.0
COC(=O)Cn1c(=O)n(C)c(=O)n(-c2cc(Oc3ccc([S+](C)[O-])cc3Cl)ccc2[N+](=O)[O-])c1=O (centres unmarked) [Compound 36],GLXMAW herbicidal rating,[1]; Rate 0.125 kg/ha,0.0
same,GLXMAW herbicidal rating,[1]; Rate 0.250 kg/ha,0.0
same,GLXMAW herbicidal rating,[1]; Rate 0.500 kg/ha,0.0
same,"Herbicidal effect rating, ORYSAT",[2]; 0.063 kg/ha,0.0
same,"Herbicidal effect rating, ORYSAT",[2]; 0.125 kg/ha,0.0
same,"Herbicidal effect rating, ORYSAT",[2]; 0.250 kg/ha,0.0
same,"Herbicidal effect rating, ORYSAT",[2]; 0.500 kg/ha,0.0
same,CHEAL rating,[3]; Rate 0.125 kg/ha,8.0
same,CHEAL rating,[3]; Rate 0.250 kg/ha,8.0
same,CHEAL rating,[3]; Rate 0.500 kg/ha,8.0
same,ABUTH herbicidal rating,[4]; Rate 0.125 kg/ha,0.0
same,ABUTH herbicidal rating,[4]; Rate 0.250 kg/ha,0.0
same,ABUTH herbicidal rating,[4]; Rate 0.500 kg/ha,0.0
same,ECHCG herbicidal rating,[5]; Rate 0.125 kg/ha,0.0
same,ECHCG herbicidal rating,[5]; Rate 0.250 kg/ha,0.0
same,ECHCG herbicidal rating,[5]; Rate 0.500 kg/ha,0.0
same,ZEAMX herbicidal rating,[6]; Rate 0.125 kg/ha,0.0
same,ZEAMX herbicidal rating,[6]; Rate 0.250 kg/ha,0.0
same,ZEAMX herbicidal rating,[6]; Rate 0.500 kg/ha,0.0
same,TRZAWO herbicidal rating,[7]; Rate 0.125 kg/ha,0.0
same,TRZAWO herbicidal rating,[7]; Rate 0.250 kg/ha,0.0
same,TRZAWO herbicidal rating,[7]; Rate 0.500 kg/ha,0.0
same,AMBEL herbicidal rating,[8]; Rate 0.125 kg/ha,0.0
same,AMBEL herbicidal rating,[8]; Rate 0.250 kg/ha,0.0
same,AMBEL herbicidal rating,[8]; Rate 0.500 kg/ha,0.0
same,SETVI herbicidal rating,[9]; Rate 0.125 kg/ha,0.0
same,SETVI herbicidal rating,[9]; Rate 0.250 kg/ha,0.0
same,SETVI herbicidal rating,[9]; Rate 0.500 kg/ha,0.0
same,IPOSS herbicidal rating,[10]; Rate 0.125 kg/ha,0.0
same,IPOSS herbicidal rating,[10]; Rate 0.250 kg/ha,0.0
same,IPOSS herbicidal rating,[10]; Rate 0.500 kg/ha,0.0
same,"Herbicidal effect rating, CYPSE",[14]; 0.063 kg/ha,0.0
same,"Herbicidal effect rating, CYPSE",[14]; 0.125 kg/ha,0.0
same,"Herbicidal effect rating, CYPSE",[14]; 0.250 kg/ha,0.0
same,"Herbicidal effect rating, CYPSE",[14]; 0.500 kg/ha,0.0
same,GALAP herbicidal rating,[15]; Rate 0.125 kg/ha,0.0
same,GALAP herbicidal rating,[15]; Rate 0.250 kg/ha,0.0
same,GALAP herbicidal rating,[15]; Rate 0.500 kg/ha,0.0
same,GLXMAW rating,[16]; Rate 0.125 kg/ha,5.0
same,GLXMAW rating,[16]; Rate 0.250 kg/ha,5.0
same,GLXMAW rating,[16]; Rate 0.500 kg/ha,5.0
same,ORYSAT herbicidal rating,[12]; Rate 0.125 kg/ha,0.0
same,ORYSAT herbicidal rating,[12]; Rate 0.250 kg/ha,0.0
same,ORYSAT herbicidal rating,[12]; Rate 0.500 kg/ha,0.0
same,"Herbicidal effect rating, SAGPY",[13]; 0.063 kg/ha,0.0
same,"Herbicidal effect rating, SAGPY",[13]; 0.125 kg/ha,0.0
same,"Herbicidal effect rating, SAGPY",[13]; 0.250 kg/ha,0.0
same,"Herbicidal effect rating, SAGPY",[13]; 0.500 kg/ha,0.0
